Assay results reported in patent US20250163104A1, “MACROCYCLIC IMMUNOMODULATORS” (priority 2021, published 2025).
*1 amine or outer side, *2 acyl side, *3 side chain or, on linkers, in order; H or OH if unused. Where a SMILES comes first, the peptide text is derived from it. Bridges are numbered along the chain shown (N, C = ends). [ ]: non-standard residue; d: D form. The star is where a group is joined. ξ: configuration not given here. Phe(4-CONH2) = NC(=O)c1ccc(C[C@H](N)C(=O)O)cc1; Phe(4-COOH) = N[C@@H](Cc1ccc(C(=O)O)cc1)C(=O)O; Phe(2,4-Cl2) = N[C@@H](Cc1ccc(Cl)cc1Cl)C(=O)O; Bip = N[C@@H](Cc1ccc(-c2ccccc2)cc1)C(=O)O; Phe(3-Me) = Cc1cccc(C[C@H](N)C(=O)O)c1; Ethylenediamine = C(CN[*:2])N[*:1]; Val(3-OH) = CC(C)(O)[C@H](N)C(=O)O; 4Pal = N[C@@H](Cc1ccncc1)C(=O)O; 2Thi = N[C@@H](Cc1cccs1)C(=O)O; Cha = N[C@@H](CC1CCCCC1)C(=O)O; Thr(3ξ) = CC(O)[C@H](N)C(=O)O; Carboxymethyl = O=C(O)C*; Nle = CCCC[C@H](N)C(=O)O; Orn = NCCC[C@H](N)C(=O)O; Pra = C#CC[C@H](N)C(=O)O; dDap = NC[C@@H](N)C(=O)O; Dab = NCC[C@H](N)C(=O)O; Nva = CCC[C@H](N)C(=O)O; Dap = NC[C@H](N)C(=O)O; NHCH2CH2OMe = COCCN*

biological target: T1, human PD-1 / PD-L1-Ig binding on Jurkat cell line over-expressing human PD-1 (Jurkat-PD-1) (Homo sapiens, UniProt Q15116); test: Jurkat-PD-1 Cell Binding High-Content Screening Assay (CBA); type: cell-based; settings: Jurkat-PD-1 cells, PE-labeled PD-L1-Ig 20 nM final; read-out: Jurkat HPD1_PDL1 IC50
T1 construct: expressed in transfected cells; host or cells: Jurkat
Method in brief: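 Jurkat-hPD-1 cells in DMEM with 10% fetal calf serum receive test compound and are held at 37° C for 2 h. PE-labeled PD-L1-Ig is added at 20 nM final and left for 1 hour. Cells are then fixed and Hoechst-stained, and binding is measured by imaging.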

T1 sequence (Q15116 25-288): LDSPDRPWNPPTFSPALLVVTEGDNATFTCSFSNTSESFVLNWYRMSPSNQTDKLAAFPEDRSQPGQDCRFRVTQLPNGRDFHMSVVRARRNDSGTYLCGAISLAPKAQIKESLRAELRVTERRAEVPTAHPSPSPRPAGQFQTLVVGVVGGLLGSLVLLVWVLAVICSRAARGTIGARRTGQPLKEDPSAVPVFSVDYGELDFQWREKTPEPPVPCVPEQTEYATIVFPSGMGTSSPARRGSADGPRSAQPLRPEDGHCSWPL

IC50	SMILES
7.2 nM	CC(C)C[C@H]1NC(=O)[C@H](CCCN)NC(=O)[C@H](CN)NC(=O)[C@H](Cc2ccc(-c3ccccc3)cc2)NC(=O)[C@H](C(C)C)NC(=O)[C@H](Cc2c[nH]c3ccccc23)NC(=O)[C@H](CC(=O)O)NC(=O)[C@H](Cc2ccc(OCC(=O)O)cc2)NC(=O)[C@H](CN)NC(=O)CSC[C@@H](C(=O)N[C@@H](C)C(N)=O)NC(=O)[C@H]([C@@H](C)O)NC(=O)[C@H](C(C)C)NC(=O)[C@H](CC2CCCCC2)NC(=O)[C@H](CCN)NC1=O [Compound 1376]
23.1 nM	CC[C@H](C)[C@@H]1NC(=O)[C@H](Cc2ccc(-c3ccccc3)cc2)NC(=O)[C@H](C(C)C)NC(=O)[C@H](Cc2c[nH]c3ccccc23)NC(=O)[C@H](CC(=O)O)NC(=O)[C@H](Cc2ccc(O)cc2)NC(=O)[C@H](CC(N)=O)NC(=O)CSC[C@@H](C(=O)N[C@@H](C)C(N)=O)NC(=O)[C@H](CO)NC(=O)[C@H](C(C)C)NC(=O)[C@H](CC(C)C)NC(=O)[C@H](CCN)NC(=O)[C@@H](CC(C)C)NC(=O)[C@H](CCCN)NC1=O [Compound 1118] ({CH2CO}-NYDWV[Bip]I[Orn][dL][Dab]LVSCA-NH2; thioether N-14)
64.7 nM	CCCC[C@@H]1NC(=O)[C@H](CCCNC(=N)N)NC(=O)[C@@H](CC(C)C)NC(=O)[C@H](CCCN)NC(=O)[C@H]([C@@H](C)CC)NC(=O)[C@H](Cc2ccc(-c3ccccc3)cc2)NC(=O)[C@H](C(C)C)NC(=O)[C@H](Cc2c[nH]c3ccccc23)NC(=O)[C@H](CC(=O)O)NC(=O)[C@H](Cc2ccc(O)cc2)NC(=O)[C@H](Cc2ccccc2)NC(=O)CSC[C@@H](C(=O)N[C@@H](C)C(N)=O)NC(=O)[C@H]([C@@H](C)O)NC(=O)[C@H](C(C)C)NC1=O [Compound 1152] ({CH2CO}-FYDWV[Bip]I[Orn][dL]R[Nle]VTCA-NH2; thioether N-14)
10.7 nM	CC[C@H](C)[C@@H]1NC(=O)[C@H](Cc2ccc(-c3ccccc3)cc2)NC(=O)[C@H](C(C)C)NC(=O)[C@H](Cc2cccc(OC)c2)NC(=O)[C@H](CC(=O)O)NC(=O)[C@H](Cc2ccncc2)NC(=O)[C@H](CN)NC(=O)CSC[C@@H](C(=O)N[C@@H](C)C(N)=O)NC(=O)[C@H]([C@@H](C)O)NC(=O)[C@H](C(C)C)NC(=O)[C@H](CC2CCCCC2)NC(=O)[C@H](CCN)NC(=O)[C@@H](CC(C)C)NC(=O)[C@H](CCCN)NC1=O [Compound 1563]
120 nM	CC(C)C[C@H]1NC(=O)[C@H](CCCN)NC(=O)[C@H](CCC(=O)O)NC(=O)[C@H](Cc2ccc(-c3ccccc3)cc2)NC(=O)[C@H](C(C)C)NC(=O)[C@H](Cc2c[nH]c3ccccc23)NC(=O)[C@H](CC(=O)O)NC(=O)[C@H](Cc2ccc(OCC(=O)O)cc2)NC(=O)[C@H](CN)NC(=O)CSC[C@@H](C(=O)N[C@@H](C)C(N)=O)NC(=O)[C@H]([C@@H](C)O)NC(=O)[C@H](C(C)C)NC(=O)[C@H](Cc2ccc(Cl)cc2Cl)NC(=O)[C@H](CCN)NC1=O [Compound 1478] ({CH2CO}-[Dap]Y(Carboxymethyl)DWV[Bip]E[Orn][dL][Dab][Phe(2,4-Cl2)]VTCA-NH2; thioether N-14)
10.6 nM	CC(C)C[C@H]1NC(=O)[C@H](CCCN)NC(=O)[C@H](CCC(=O)O)NC(=O)[C@H](Cc2ccc(-c3ccccc3)cc2)NC(=O)[C@H](C(C)C)NC(=O)[C@H](Cc2cccs2)NC(=O)[C@H](CC(=O)O)NC(=O)[C@H](Cc2ccncc2)NC(=O)[C@H](CC(N)=O)NC(=O)CSC[C@@H](C(=O)N[C@@H](C)C(N)=O)NC(=O)[C@H]([C@@H](C)O)NC(=O)[C@H](C(C)C)NC(=O)[C@H](CC2CCCCC2)NC(=O)[C@H](CCN)NC1=O [Compound 2199] ({CH2CO}-N[4Pal]D[2Thi]V[Bip]E[Orn][dL][Dab][Cha]VTCA-NH2; thioether N-14)
7.7 nM	CC(C)C[C@H]1NC(=O)[C@H](CCCN)NC(=O)[C@H](CCC(=O)O)NC(=O)[C@H](Cc2ccc(-c3ccccc3)cc2)NC(=O)[C@H](C(C)C)NC(=O)[C@H](Cc2c[nH]c3ccccc23)NC(=O)[C@H](CC(=O)O)NC(=O)[C@H](Cc2ccc(C(=O)O)cc2)NC(=O)[C@H](Cc2ccccc2)NC(=O)CSC[C@@H](C(=O)N[C@@H](C)C(N)=O)NC(=O)[C@H]([C@@H](C)O)NC(=O)[C@H](C(C)C)NC(=O)[C@H](CC2CCCCC2)NC(=O)[C@H](CCN)NC1=O [Compound 2158] ({CH2CO}-F[Phe(4-COOH)]DWV[Bip]E[Orn][dL][Dab][Cha]VTCA-NH2; thioether N-14)
54.1 nM	CC(C)C[C@@H]1NC(=O)[C@H](Cc2c[nH]c3ccccc23)NC(=O)[C@H](CC(=O)O)NC(=O)[C@H](Cc2ccc(O)cc2)NC(=O)[C@H](Cc2ccccc2)NC(=O)CSC[C@@H](C(=O)N[C@@H](C)C(N)=O)NC(=O)[C@H](CO)NC(=O)[C@H](C(C)C)NC(=O)[C@H](CC(C)C)NC(=O)[C@H](CC(N)=O)NC(=O)[C@@H](C)NC(=O)[C@@H](CN)NC(=O)[C@H](C(C)C)NC(=O)[C@H](Cc2ccc(-c3ccccc3)cc2)NC1=O [Compound 2002] ({CH2CO}-FYDWL[Bip]V[dDap][dA]NLVSCA-NH2; thioether N-14)
5.2 nM	COc1cccc(C[C@@H]2NC(=O)[C@H](CC(=O)O)NC(=O)[C@H](Cc3ccc(OCC(=O)O)cc3)NC(=O)[C@H](Cc3ccc(OCC(=O)O)cc3)NC(=O)CSC[C@@H](C(=O)N[C@@H](C)C(N)=O)NC(=O)[C@H]([C@@H](C)O)NC(=O)[C@H](C(C)C)NC(=O)[C@H](CC3CCCCC3)NC(=O)[C@H](CCN)NC(=O)[C@@H](CC(C)C)NC(=O)[C@H](CCCN)NC(=O)[C@H](CCC(=O)O)NC(=O)[C@H](Cc3ccc(-c4ccccc4)cc3)NC(=O)[C@H](C(C)C)NC2=O)c1 [Compound 1504]
18.4 nM	CC(C)C[C@H]1NC(=O)[C@H](CCCN)NC(=O)[C@H](CCC(=O)O)NC(=O)[C@H](Cc2ccc(-c3ccccc3)cc2)NC(=O)[C@H](C(C)C)NC(=O)[C@H](Cc2c[nH]c3ccccc23)NC(=O)[C@H](CC(=O)O)NC(=O)[C@H](Cc2cccs2)NC(=O)[C@H](CN)NC(=O)CSC[C@@H](C(=O)N[C@@H](C)C(N)=O)NC(=O)[C@H]([C@@H](C)O)NC(=O)[C@H](C(C)C)NC(=O)[C@H](CC2CCCCC2)NC(=O)[C@H](CCN)NC1=O [Compound 2192] ({CH2CO}-[Dap][2Thi]DWV[Bip]E[Orn][dL][Dab][Cha]VTCA-NH2; thioether N-14)
11.6 nM	Cc1cccc(C[C@@H]2NC(=O)[C@H](CC(=O)O)NC(=O)[C@H](Cc3ccc(OCC(=O)O)cc3)NC(=O)[C@H](C(C)O)NC(=O)CSC[C@@H](C(=O)N[C@@H](CO)C(=O)NCCN)NC(=O)[C@H](C(C)O)NC(=O)[C@H](C(C)(C)O)NC(=O)[C@H](CC3CCCCC3)NC(=O)[C@H](CCN)NC(=O)[C@@H](CC(C)C)NC(=O)[C@H](CCCN)NC(=O)[C@H](Cc3ccc(O)cc3)NC(=O)[C@H](Cc3ccc(-c4ccccc4)cc3)NC(=O)[C@H](Cc3ccc(C(N)=O)cc3)NC2=O)c1 (stereo partly drawn) [Compound 2663] ({CH2CO}-[Thr(3ξ)]Y(Carboxymethyl)D[Phe(3-Me)][Phe(4-CONH2)][Bip]Y[Orn][dL][Dab][Cha][Val(3-OH)][Thr(3ξ)]CS-Ethylenediamine; thioether N-14)
8.1 nM	Cc1cccc(C[C@@H]2NC(=O)[C@H](CC(=O)O)NC(=O)[C@H](Cc3ccncc3)NC(=O)[C@H](CN)NC(=O)CSC[C@@H](C(=O)N[C@@H](C)C(N)=O)NC(=O)[C@H]([C@@H](C)O)NC(=O)[C@H](C(C)C)NC(=O)[C@H](CC3CCCCC3)NC(=O)[C@H](CCN)NC(=O)[C@@H](CC(C)C)NC(=O)[C@H](CCCN)NC(=O)[C@H](CCC(=O)O)NC(=O)[C@H](Cc3ccc(-c4ccccc4)cc3)NC(=O)[C@H](C(C)C)NC2=O)c1 [Compound 1418] ({CH2CO}-[Dap][4Pal]D[Phe(3-Me)]V[Bip]E[Orn][dL][Dab][Cha]VTCA-NH2; thioether N-14)
240 nM	COCCNC(=O)[C@H](CCN)NC(=O)[C@@H]1CSCC(=O)N[C@@H](Cc2ccncc2)C(=O)N[C@@H](Cc2ccc(C(=O)O)cc2)C(=O)N[C@@H](CC(=O)O)C(=O)N[C@@H](Cc2cccc(C)c2)C(=O)N[C@@H](Cc2ccc(OCC(=O)O)cc2)C(=O)N[C@@H](Cc2ccc(-c3ccccc3)cc2)C(=O)N[C@@H](Cc2ccc(OCC(=O)O)cc2)C(=O)N[C@@H](CCCN)C(=O)N[C@H](CC(C)C)C(=O)N[C@@H](CCN)C(=O)N[C@@H](CC2CCCCC2)C(=O)N[C@@H](C(C)(C)O)C(=O)N[C@@H](CO)C(=O)N1 [Compound 2076] ({CH2CO}-[4Pal][Phe(4-COOH)]D[Phe(3-Me)]Y(Carboxymethyl)[Bip]Y(Carboxymethyl)[Orn][dL][Dab][Cha][Val(3-OH)]SC[Dab]-NHCH2CH2OMe; thioether N-14)
26.2 nM	C#CC[C@H](NC(=O)[C@H](C)NC(=O)[C@@H]1CSCC(=O)N[C@@H](CCN)C(=O)N[C@@H](Cc2ccc(OCC(=O)O)cc2)C(=O)N[C@@H](CC(=O)O)C(=O)N[C@@H](Cc2cccc(C)c2)C(=O)N[C@@H](Cc2ccc(OCC(=O)O)cc2)C(=O)N[C@@H](Cc2ccc(-c3ccccc3)cc2)C(=O)N[C@@H](Cc2ccc(OCC(=O)O)cc2)C(=O)N[C@@H](CCCN)C(=O)N[C@H](CC(C)C)C(=O)N[C@@H](CCN)C(=O)N[C@@H](CC2CCCCC2)C(=O)N[C@@H](C(C)(C)O)C(=O)N[C@@H](CCC)C(=O)N1)C(=O)O [Compound 2697] ({CH2CO}-[Dab]Y(Carboxymethyl)D[Phe(3-Me)]Y(Carboxymethyl)[Bip]Y(Carboxymethyl)[Orn][dL][Dab][Cha][Val(3-OH)][Nva]CA[Pra]-OH; thioether N-14)
15.3 nM	CC(C)C[C@H]1NC(=O)[C@H](CCCN)NC(=O)[C@H](CCC(=O)O)NC(=O)[C@H](Cc2ccc(-c3ccccc3)cc2)NC(=O)[C@H](C(C)C)NC(=O)[C@H](Cc2c[nH]c3ccccc23)NC(=O)[C@H](CC(=O)O)NC(=O)[C@H](Cc2cccs2)NC(=O)[C@H](CC(N)=O)NC(=O)CSC[C@@H](C(=O)N[C@@H](C)C(N)=O)NC(=O)[C@H]([C@@H](C)O)NC(=O)[C@H](C(C)C)NC(=O)[C@H](CC2CCCCC2)NC(=O)[C@H](CCN)NC1=O [Compound 2190] ({CH2CO}-N[2Thi]DWV[Bip]E[Orn][dL][Dab][Cha]VTCA-NH2; thioether N-14)
